Usually IC50 stands for the point on the concentration scale where inhibition reaches its midpoint. High values mean lower potency, low ones higher potency.

The record followed here is article PMC10548512 (Chemical Science, 2023).

Molecules are shown by their SMILES.

In this test the test system is H1N1pdm09 virus (A/Netherlands/602/2009) I375F mutant. Conditions: 1 h.

The compound `CC[C@H](C)[C@@H]1NC(=O)[C@H](CS)NC(=O)[C@H](CO)NC(=O)[C@H](CCCNC(=N)N)NC(=O)[C@H](CCCNC(=N)N)NC(=O)[C@H](Cc2ccc(O)cc2)NC(=O)[C@H](CCC(N)=O)NC(=O)[C@H](Cc2ccccc2)NC(=O)[C@H](CC(N)=O)NC(=O)[C@H](CC(C)C)NC(=O)[C@@H]2CSC(=N2)c2cc(ccn2)C[C@@H](C(=O)NCC(N)=O)NC(=O)[C@H](CC(N)=O)NC(=O)[C@H](CC(C)C)NC(=O)[C@H]([C@@H](C)CC)NC(=O)[C@H](CC(N)=O)NC(=O)[C@H](CC(C)C)NC1=O` [M3] gave an IC50 of 0.364 µM.
